In one assay the target is T1, MAPK1(ERK2) enzyme (Homo sapiens, UniProt P28482).
T1 construct: purchased Invitrogen PV3313
Description: Z-Lyte Kinase Assay of ERK2. Type of assay: biochemical. To be noted: read-out: Example 18 IC50. How it is done:
Example 18: Z-Lyte Kinase Assay of ERK2
1. Materials and Reagents:
2. Reaction Steps: Plate Map
3. Solution Preparation • 1) 1.33× Kinase Buffer: Dilute 5× Kinase Buffer to 1.33× with ddH2O • 2) 4× Test Compounds: Serially dilute the test compounds to 4 folds of the concentrations desired, keeping the DMSO concentration at 8%. The final concentrations are 1, 0.33, 0.11, 0.037, 0.012, 0.004, 0.0014, 0.00046 μM, and the final concentration of DMSO is 2%. • 3) Kinase/Peptide Mixture (P/K solution): Prepare Kinase/Peptide Mixture by diluting the kinase to 0.6 μg/ml and the Z-LYTE™ Ser/Thr3 peptide to 4 μM in 1.33× Kinase Buffer. Mix gently by pipetting. • 4) Phospho-peptide Solution (PP solution): Add 0.4 μl of Z-LYTE™ Ser/Thr3 Phospho-peptide to 99.6 μl of 1.33× Kinase Buffer. • 5) ATP Solution: Prepare ATP Solution by diluting the 10 mM of ATP in 1.33× Kinase Buffer to 100 μM. • 6) Development Solution: Dilute Development Reagent A with Development Buffer as 1:1024. 4. Reaction • 1) Kinase reaction (10 μl of Volume) • a. In a 384-well plate, add 2.5 μl of 4× test Cpds to each well except C1, C2, C3 wells Add 2.5 μl of 8% DMSO to C1, C2, C3 wells • b. Put the plate on ice • c. Add 5 μl of P/K mixture to each test Cpd wells and C1, C2 wells • d. Add 5 μl of PP Solution to C3 well • e. Add 2.5 μl of 1.33× kinase buffer to C1 and C3 wells • f. Add 2.5 μl of 4×ATP Solution to each test Cpd wells and C2 well, respectively. Shake the plate for 30 Sec and centrifuge (1500 rpm, 1 min) • g. Seal the plate to protect from the light and incubate the plate for 1 hour at RT (25-30° C.) • 2) Development reaction • a. Add 5 μl of the Development solution to all wells • b. Shake the plate for 30 sec and centrifuge (1500 rpm, 1 min) • c. Seal the plate to protect from the light and incubate the plate for 1 hour at RT (25-30° C.) • 3) Stop and read • a. Add 5 μl of the Stop reagent to all wells • b. Shake the plate for 30 sec and centrifuge (1500 rpm, 1 min) • c. Measure the value of coumarin (Ex400 nm, Em445 nm) and fluorescein (Ex400 nm, Em520 nm), respectively. 5. Data Analysis Emission Ratio(ER)=Coumarin Emission (445 nm)/Fluorescein Emission (520 nm) % Phosphorylation=1−[ER×C3520nm−C3445nm]/[(C1445nm−C3445nm)+ER×(C3520nm−C1520nm)] Inhibition rate (IR)=1−% Photest Cpd% PhoC2 6. IC50 Value: determine IC50 with add-in software for Microsoft Excel, XLfit™ (version 2.0) from ID Business Solutions (Guildford, UK)

Assay [1] concerns p-RSK (Thr359) in colo205 cells. The assay can be described thus: p-RSK (Thr359) Acumen Assay in Colo205. Type of assay: cell-based. To be noted: Homo sapiens, COLO 205, 1 hour compound incubation, read-out: Example 19 IC50. As to the method: Example 19: p-RSK (Thr359) Acumen Assay in Colo205
• Phospho-p90RSK (Thr359) (D1E9) Rabbit mAb: cell signal, #8753 • Alexa Fluor® 488 donkey anti-rabbit IgG: invitrogen, #A-21206 • Propidium Iodide: Sigma, #p4170 • 4% Paraformaldehyde: SCRC, #DF021 • 10% Triton X-100: PIERCE, #28314 • 96-well plate (black with clear bottom): BD, #354640 • Acumen® eX3 (A Multilaser Microplate Cytometer For Enhanced High Content Screening): TTP LabTech 3. Acumen Assay Protocol • Seed 4000 cells in 100 μl 10% FBS/well into 96-well plate, incubate at 37° C., 5% CO2, overnight. • Dilute the compound to 3, 1, 0.33, 0.11, 0.037, 0.012, 0.004, 0.001 μM, keeping the DMSO concentration at 5%. Add 10 μl of diluted compound per well and incubate at 37° C., 5% CO2 for 1 hour. • Add 100 μl of 4% pre-warmed Paraformaldehyde (2% final), and incubate for 45 min at room temperature. • Remove paraformaldehyde solutions. Add 100 μl of ice-cold 0.1% Triton to fixed cells at room temperature for 30 min. • Wash twice with 150 μl PBS and incubate with 100 μl blocking buffer (1% BSA, in PBS) for 2˜3 hours at room temperature, seal the plate. • Wash once with PBS and incubate with 35 μl p-RSK (Thr359) (1:1000 dilution) overnight at 4° C. Seal the plate. • Wash twice with PBS and incubate for 1.5 hours at room temperature with 35 μl of Alexa Fluor® 488 donkey anti-rabbit IgG at a 1:1,000 dilution in antibody dilution buffer (0.1% BSA, in PBS). Cover plate in foil to keep out of light. • Wash twice with 150 μl PBS. Add 35 μl of 1.5 μM Propidium Iodide stock to each well to determine cell number, seal the plate. • Incubate at room temperature for 30 min. Load the plate into the Acumen Explorer and scan with the appropriate instrument settings. 4. Data Analysis
[formula] Note: • Percentagecompound well represents the positive percentage of cells treated by compound. • Percentagemin well represents the positive percentage of cells treated with 3 uM GDC0994. • Percentagemax well represents the positive percentage of cells without compounds treatment. 5. IC50 Value: determine IC50 with add-in software for Microsoft Excel, XLfit™ (version 2.0) from ID Business Solutions (Guildford, UK)

T1 sequence (P28482 whole entry): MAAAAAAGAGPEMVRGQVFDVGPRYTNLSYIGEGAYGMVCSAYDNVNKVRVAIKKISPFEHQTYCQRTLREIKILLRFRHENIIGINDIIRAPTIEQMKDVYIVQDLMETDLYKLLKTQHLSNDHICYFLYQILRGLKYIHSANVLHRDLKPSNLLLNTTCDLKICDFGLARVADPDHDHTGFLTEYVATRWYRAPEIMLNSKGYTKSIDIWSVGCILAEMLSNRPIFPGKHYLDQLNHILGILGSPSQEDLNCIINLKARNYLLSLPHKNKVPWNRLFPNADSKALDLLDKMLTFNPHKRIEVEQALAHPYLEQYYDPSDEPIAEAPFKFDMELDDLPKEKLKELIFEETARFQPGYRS

As to `Cn1nccc1Nc1cc(-c2cc3n(c2)CC(F)(F)Cn2c(Cn4cc(F)cc4C#N)nnc2-3)c(Cl)cn1` [Compound 219], the IC50 at MAPK1(ERK2) enzyme was ≤ 0.005 µM; in assay [1], > 0.1 µM.
As to `Cn1nccc1Nc1cc(-c2cc3n(c2)C[C@H](F)Cn2c-3nnc2C(F)(F)n2cc(F)cn2)c(Cl)cn1` [Compound 162], the IC50 on MAPK1(ERK2) enzyme was 0.005 to 0.01 µM; in assay [1], ≤ 0.1 µM.
Turning to `Cc1cnc(Nc2ccnn2C(F)F)cc1-c1cc2n(c1)CCCn1c-2nnc1C1(C(F)(F)F)CCC1` [Compound 263], the IC50 on MAPK1(ERK2) enzyme is ≤ 0.005 µM; in assay [1], ≤ 0.1 µM.
For the compound `Cn1nccc1Nc1nccc(-c2cc3n(c2)CCCn2c(COc4ccccc4)nnc2-3)n1` [Compound 36, N-(1-methyl-1H-pyrazol-5-yl)-4-(3-(phenoxymethyl)-6,7-dihydro-5H-pyrrolo[1,2-a][1,2,4]triazolo[3,4-c][1,4]diazepin-10-yl)pyrimidin-2-amine], the results for the IC50 (at MAPK1(ERK2) enzyme; in assay [1]) were ≤ 0.005 µM and > 0.1 µM, respectively.
For `Cn1nccc1Nc1nccc(-c2cc3c4nnc(Nc5ccccc5F)n4ccn3c2)n1` [Compound 41, N-(2-fluorophenyl)-9-(2-((1-methyl-1H-pyrazol-5-yl)amino)pyrimidin-4-yl)pyrrolo[1,2-a][1,2,4]triazolo[3,4-c]pyrazin-3-amine] the same measures were ≤ 0.005 µM and > 0.1 µM.
For `Cn1nccc1Nc1nccc(-c2cn3c(c2Cl)-c2nnc(COc4ccccc4F)n2CCC3)n1` [Compound 257] the same measures were 0.005 to 0.01 µM and ≤ 0.1 µM.
For `Cc1cnc(Nc2ccnn2C)nc1-c1cc2n(c1)CCn1c-2nnc1C1(C(F)(F)F)CCC1` [Compound 5] the same measures were ≤ 0.005 µM and > 0.1 µM.
Turning to `C[C@H](Oc1ccccc1F)c1nnc2n1CC(C)(C)Cn1cc(-c3ccnc(Nc4ccnn4C)n3)cc1-2` [Compound 44, (S)-4-(3-(1-(2-fluorophenoxy)ethyl)-6,6-dimethyl-6,7-dihydro-5H-pyrrolo[1,2-a][1,2,4]triazolo[3,4-c][1,4]diazepin-10-yl)-N-(1-methyl-1H-pyrazol-5-yl)pyrimidin-2-amine], the IC50 was > 0.01 µM at MAPK1(ERK2) enzyme and > 0.1 µM in assay [1].
`Cc1cnc(Nc2ccnn2C)cc1-c1cc2n(c1)C[C@H](F)Cn1c-2nnc1C(F)(F)C(F)(F)F` [Compound 75]: the values for the IC50 (on MAPK1(ERK2) enzyme; in assay [1]) were ≤ 0.005 µM and > 0.1 µM, respectively.
The corresponding values for `Cn1nccc1Nc1ncc(F)c(-c2cc3n(c2)CCCn2c-3nnc2C2(C(F)(F)F)CCC2)n1` [Compound 285] are ≤ 0.005 µM and > 0.1 µM.
`C[C@H]1Cn2cc(-c3ccnc(Nc4ccnn4C)c3)cc2-c2nnc(C(F)(F)c3ccccc3Cl)n21` [Compound 91]: the figures for the IC50 (on MAPK1(ERK2) enzyme; in assay [1]) were 0.005 to 0.01 µM and ≤ 0.1 µM, respectively.
As for `Cc1cnc(Nc2ccnn2C)nc1-c1cc2n(c1)C[C@H](C)n1c-2nnc1C(F)(F)c1c(F)cccc1F` [Compound 130], the IC50 on MAPK1(ERK2) enzyme is 0.005 to 0.01 µM; in assay [1], > 0.1 µM.
On to `Cn1nccc1Nc1cc(-c2cc3n(c2)C[C@H](CF)n2c-3nnc2C(F)(F)c2ccccc2F)ccn1` [Compound 96], for which the IC50 at MAPK1(ERK2) enzyme was 0.005 to 0.01 µM; in assay [1], ≤ 0.1 µM.
Take `Cn1nccc1Nc1nccc(-c2cc3n(c2)CCCn2c(CSc4ccccc4F)nnc2-3)n1` [Compound 19]: the results for the IC50 (on MAPK1(ERK2) enzyme; in assay [1]) were ≤ 0.005 µM and ≤ 0.1 µM, respectively.
For `Cn1nccc1Nc1cc(-c2cc3n(c2)CCCn2c-3nnc2C2(C(C)(F)F)CCC2)c(Cl)cn1` [Compound 49] the same measures were ≤ 0.005 µM and ≤ 0.1 µM.
The corresponding values for `Cn1nccc1Nc1cc(-c2cc3n(c2)CC(F)(F)Cn2c(Cn4ccc(F)c4C#N)nnc2-3)c(Cl)cn1` [Compound 218] are 0.005 to 0.01 µM and ≤ 0.1 µM.
In the case of `Cc1cnc(Nc2ccnn2C)cc1-c1cc2n(c1)C[C@H](CF)n1c-2nnc1C(F)(F)c1ncccc1F` [Compound 133], the figures for the 50% inhibitory concentration (IC50) (at MAPK1(ERK2) enzyme; in assay [1]) were ≤ 0.005 µM and ≤ 0.1 µM, respectively.
Turning to `Cc1cnc(Nc2ccnn2C)nc1-c1cc2n(c1)[C@H](C)Cn1c-2nnc1C1(C(F)(F)F)CCC1` [Compound 48], the IC50 is ≤ 0.005 µM at MAPK1(ERK2) enzyme and > 0.1 µM in assay [1].
The corresponding values for `Cc1cnc(Nc2ccnn2C)cc1-c1cc2n(c1)CC1(CCC1)Cn1c-2nnc1C1(C(F)(F)F)CCC1` [Compound 129] are ≤ 0.005 µM and ≤ 0.1 µM.
For `Cn1nccc1Nc1cc(-c2cc3n(c2)CCCn2c-3nnc2C(O)c2ccccc2)c(Cl)cn1` (centres unmarked) [Compound 18] the same measures were 0.005 to 0.01 µM and > 0.1 µM.
In the case of `Cc1cnc(Nc2ccnn2C)nc1-c1cc2c3nnc(Cc4cccc(F)c4)n3ccn2c1` [Compound 283], the IC50 was ≤ 0.005 µM on MAPK1(ERK2) enzyme and ≤ 0.1 µM in assay [1].
For `Cc1cnc(Nc2ccnn2C)nc1-c1cc2n(c1)[C@@H](C)Cn1c-2nnc1C1(C(F)(F)F)CCC1` [Compound 47] the same measures were ≤ 0.005 µM and ≤ 0.1 µM.
With `Cn1nccc1Nc1cc(-c2cc3n(c2)CC(F)(F)Cn2c(Cn4cccc4C#N)nnc2-3)c(Cl)cn1` [Compound 217, 1-((10-(5-chloro-2-((1-methyl-1H-pyrazol-5-yl)amino)pyridin-4-yl)-6,6-difluoro-6,7-dihydro-5H-pyrrolo[1,2-a][1,2,4]triazolo[3,4-c][1,4]diazepin-3-yl)methyl)-1H-pyrrole-2-carbonitrile], the IC50 on MAPK1(ERK2) enzyme is ≤ 0.005 µM; in assay [1] it was ≤ 0.1 µM.
The corresponding values for `[2H]C([2H])([2H])n1nccc1Nc1cc(-c2cc3n(c2)CCCn2c-3nnc2C2(C(F)(F)F)CCC2)c(C)cn1` [Compound 240] are ≤ 0.005 µM and ≤ 0.1 µM.
For `C[C@@H](c1ccccc1)c1nnc2n1CCCn1cc(-c3cc(Nc4ccnn4C)ncc3Cl)cc1-2` [Compound 15], the results for the IC50 (at MAPK1(ERK2) enzyme; in assay [1]) were 0.005 to 0.01 µM and ≤ 0.1 µM, respectively.
Take `COc1ccccc1C(F)(F)c1nnc2n1[C@@H](CF)Cn1cc(-c3nc(Nc4ccnn4C)ncc3C)cc1-2` [Compound 167]: the IC50 on MAPK1(ERK2) enzyme is ≤ 0.005 µM; in assay [1] it was ≤ 0.1 µM.
For `Cc1cnc(Nc2ccnn2C)cc1-c1cc2n(c1)C[C@H](CF)n1c-2nnc1C(F)(F)n1cc(Cl)cn1` [Compound 153] the same measures were ≤ 0.005 µM and ≤ 0.1 µM.
For `Cc1cnc(Nc2ccnn2C)cc1-c1cc2n(c1)C[C@H](CF)n1c-2nnc1C(F)(F)c1ccc(F)cc1` [Compound 128] the same measures were 0.005 to 0.01 µM and ≤ 0.1 µM.

The IC50 is the midpoint of a concentration-inhibition curve.

Source of the values: patent US12492210B2, “Tricyclic compounds and their use” (HUTCHISON MEDIPHARMA LIMITED, priority 2019, dated 2025).
